Patent US20240116985A1, “STAPLED PEPTIDES AND METHODS THEREOF” (priority 2020, published 2024)

Target: T1, full-length beta-Catenin (Uniprot ID P35222) (Homo sapiens, UniProt P35222)
T1 construct: 10 nM full-length beta-Catenin (Uniprot ID P35222)
T1 sequence (P35222 1-781): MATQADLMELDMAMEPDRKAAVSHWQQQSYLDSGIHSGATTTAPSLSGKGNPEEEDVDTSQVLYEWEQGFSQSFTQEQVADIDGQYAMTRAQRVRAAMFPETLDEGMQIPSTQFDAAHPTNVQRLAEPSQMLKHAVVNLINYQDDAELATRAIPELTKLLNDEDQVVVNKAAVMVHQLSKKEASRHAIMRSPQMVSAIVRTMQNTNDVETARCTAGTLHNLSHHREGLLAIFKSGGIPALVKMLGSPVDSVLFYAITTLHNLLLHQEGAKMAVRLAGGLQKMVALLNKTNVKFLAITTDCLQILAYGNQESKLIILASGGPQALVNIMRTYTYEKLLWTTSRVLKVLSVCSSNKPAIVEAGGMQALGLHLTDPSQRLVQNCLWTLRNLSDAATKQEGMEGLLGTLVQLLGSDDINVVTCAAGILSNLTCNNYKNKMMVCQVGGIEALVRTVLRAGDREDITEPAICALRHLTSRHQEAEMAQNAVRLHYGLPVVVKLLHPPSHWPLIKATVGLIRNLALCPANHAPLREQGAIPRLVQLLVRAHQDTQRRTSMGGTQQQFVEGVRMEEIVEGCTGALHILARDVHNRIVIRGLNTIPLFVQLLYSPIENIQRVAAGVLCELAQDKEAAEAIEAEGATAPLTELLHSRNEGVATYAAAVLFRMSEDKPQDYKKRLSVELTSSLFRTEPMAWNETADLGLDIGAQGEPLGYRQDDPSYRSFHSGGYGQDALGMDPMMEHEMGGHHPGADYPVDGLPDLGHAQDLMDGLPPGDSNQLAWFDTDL
Test: Fluorescence polarization IC50 (beta-catenin / 5FAM-TCF4 10-53 competition)
Type: binding
Settings: fluorescence polarization; read-out: beta-Catenin FP IC50

SMILES | IC50 [nM]
CC(=O)N1CCC[C@]12CC=CCCCC1(CCCC=CCCCCC[C@@](C)(C(=O)N[C@@H](Cc3ccsc3)C(=O)N[C@@H](Cc3csc4ccccc34)C(=O)N[C@@H](CCC(N)=O)C(N)=O)NC(=O)[C@H](CC(N)=O)NC(=O)[C@H](Cc3ccccc3)NC(=O)[C@H](C)NC(=O)[C@H](C)NC(=O)[C@H]([C@@H](C)O)NC(=O)[C@H](CC(N)=O)NC1=O)NC(=O)[C@H](CC(C)(C)C)NC(=O)[C@H](CC(=O)O)NC2=O (stereo partly drawn) [I-2200, Ac-PL3-Asp-Npg-B5-Asn-Thr-Ala-Ala-Phe-Asn-S7-3Thi-BztA-Gln-NH2] | 8400
CC(=O)N1CCC[C@]12CC=CCCCC1(CCCC=CCCCOC(=O)N3CC[C@@](C(=O)N[C@@H](Cc4ccccc4)C(=O)N[C@@H](Cc4csc5ccccc45)C(=O)N[C@@H](CCC(N)=O)C(N)=O)(C3)NC(=O)[C@H](CC(C)C)NC(=O)[C@H](CO)NC(=O)[C@H](C)NC(=O)[C@H](CCCCNC(C)C)NC(=O)[C@H]([C@@H](C)O)NC(=O)[C@H](CC(=O)O)NC1=O)NC(=O)[C@H](CC(C)(C)C)NC(=O)[C@H](CC(N)=O)NC2=O (stereo partly drawn) [I-1597, Ac-PL3-Asn-Npg-B5-Asp-Thr-iPrLys-Ala-Ser-Leu-PyrS2-Phe-BztA-Gln-NH2] | 6990
CC(=O)N1CCC[C@]12CC=CCCCC1(CCCC=CCCCOC(=O)N3CC[C@@](C(=O)N[C@@H](Cc4ccccc4)C(=O)N[C@@H](Cc4csc5ccccc45)C(=O)N[C@@H](CCO)C(N)=O)(C3)NC(=O)[C@H](CC(N)=O)NC(=O)[C@H](Cc3cccc(Cl)c3)NC(=O)[C@H](C)NC(=O)[C@H](CCCCNC(C)C)NC(=O)[C@H](CCC(N)=O)NC(=O)[C@H](CC(=O)O)NC1=O)NC(=O)[C@H](CC1CCCCC1)NC(=O)[C@H](CC(N)=O)NC2=O (stereo partly drawn) [I-1924, Ac-PL3-Asn-Cha-B5-Asp-Gln-iPrLys-Ala-3C1F-Asn-PyrS2-Phe-BztA-Hse-NH2] | 1610
CC(=O)N1CCC[C@]12CCCCCCC1(CCCCCCCCOC(=O)N3CC[C@@](C(=O)N[C@@H](Cc4ccsc4)C(=O)N[C@@H](Cc4csc5ccccc45)C(=O)N[C@@H](CC(C)C)C(N)=O)(C3)NC(=O)[C@H]([C@@H](C)O)NC(=O)[C@H](Cc3ccccc3)NC(=O)[C@H](C)NC(=O)[C@H](CCCCNC(C)C)NC(=O)[C@H](CN(CC(=O)O)CC(F)(F)F)NC(=O)[C@H](CC(=O)O)NC1=O)NC(=O)[C@H](CC(C)(C)C)NC(=O)[C@H](CC(=O)O)NC2=O (stereo partly drawn) [I-1766, Ac-PL3-Asp-Npg-B5-Asp-TfeGA-iPrLys-Ala-Phe-Thr-PyrS2-3Thi-BztA-Leu-NH2] | 267
CC(=O)N1CCC[C@]12CC=CCCCC1(CCCC=CCCCOC(=O)N3CC[C@@](C(=O)N[C@@H](Cc4ccsc4)C(=O)N[C@@H](Cc4csc5ccccc45)C(=O)N[C@@H](CCC(N)=O)C(N)=O)(C3)NC(=O)[C@H](CC(C)C)NC(=O)[C@H](Cc3ccccc3)NC(=O)[C@H](C)NC(=O)[C@H](C)NC(=O)[C@H](Cc3ccc(O)cc3)NC(=O)[C@H](CC(=O)O)NC1=O)NC(=O)[C@H](CC(C)(C)C)NC(=O)[C@H](CC(=O)O)NC2=O (stereo partly drawn) [I-1784, Ac-PL3-Asp-Npg-B5-Asp-Tyr-Ala-Ala-Phe-Leu-PyrS2-3Thi-BztA-Gln-NH2] | 528
CC(=O)N1CCC[C@]12CC=CCCC1(CCC=CCCOC(=O)N3CC[C@@](C(=O)N[C@@H](Cc4ccsc4)C(=O)N[C@@H](Cc4csc5ccccc45)C(=O)N[C@@H](CCC(N)=O)C(N)=O)(C3)NC(=O)[C@H](CC(C)C)NC(=O)[C@H](Cc3ccccc3)NC(=O)[C@H](C)NC(=O)[C@H](C)NC(=O)[C@H](CC(=O)O)NC(=O)[C@H](CC(=O)O)NC1=O)NC(=O)[C@H](CC(C)(C)C)NC(=O)[C@H](CC(=O)O)NC2=O (stereo partly drawn) [I-1970, Ac-PL3-Asp-Npg-B4-Asp-Asp-Ala-Ala-Phe-Leu-PyrS1-3Thi-BztA-Gln-NH2] | 441
CC(=O)N1CCC[C@]12CCCCCCC1(CCCCCCCCOC(=O)N3CC[C@@](C(=O)N[C@@H](Cc4ccccc4Cl)C(=O)N[C@@H](Cc4csc5ccccc45)C(=O)N[C@@H](CCO)C(N)=O)(C3)NC(=O)[C@H](CCO)NC(=O)[C@H](Cc3ccccc3)NC(=O)[C@H](C)NC(=O)[C@H](C)NC(=O)[C@H](CN(CC(=O)O)CC(F)(F)F)NC(=O)[C@H](CC(=O)O)NC1=O)NC(=O)[C@H](CC(C)(C)C)NC(=O)[C@H](CC(=O)O)NC2=O (stereo partly drawn) [I-1699, Ac-PL3-Asp-Npg-B5-Asp-TfeGA-Ala-Ala-Phe-Hse-PyrS2-2C1F-BztA-Hse-NH2] | 533
CC(=O)N1CCC[C@]12CCCCCCC1(CCCCCCCCOC(=O)N3CC[C@@](C(=O)N[C@@H](Cc4ccsc4)C(=O)N[C@@H](Cc4csc5ccccc45)C(=O)N[C@@H](CC(C)C)C(N)=O)(C3)NC(=O)[C@H](CC(C)C)NC(=O)[C@H](Cc3ccccc3)NC(=O)[C@H](C)NC(=O)[C@H](C)NC(=O)[C@H](CN(CC(=O)O)CC(F)(F)F)NC(=O)[C@H](CC(=O)O)NC1=O)NC(=O)[C@H](CC(C)(C)C)NC(=O)[C@H](CC(=O)O)NC2=O (stereo partly drawn) [I-1753, Ac-PL3-Asp-Npg-B5-Asp-TfeGA-Ala-Ala-Phe-Leu-PyrS2-3Thi-BztA-Leu-NH2] | 802
CC(=O)N1CCC[C@]12CC=CCCCC1(CCCC=CCCCOC(=O)N3CC[C@@](C(=O)N[C@@H](Cc4ccccc4)C(=O)N[C@@H](Cc4csc5ccccc45)C(=O)N[C@@H](C)C(N)=O)(C3)NC(=O)[C@H](CC(C)C)NC(=O)[C@H](Cc3ccccc3)NC(=O)[C@H](C)NC(=O)[C@H](CCCCNC(C)C)NC(=O)[C@H](CCC(N)=O)NC(=O)[C@H](CC(=O)O)NC1=O)NC(=O)[C@H](CC1CCCCC1)NC(=O)[C@H](CC(N)=O)NC2=O (stereo partly drawn) [I-2352, Ac-PL3-Asn-Cha-B5-Asp-Gln-iPrLys-Ala-Phe-Leu-PyrS2-Phe-BztA-Ala-NH2] | 211
CC(C)C[C@@H]1NC(=O)[C@H](Cc2ccccc2)NC(=O)[C@H](C)NC(=O)[C@H](C)NC(=O)[C@H](Cc2cccc(C(=O)O)c2)NC(=O)[C@H](CC(=O)O)NC(=O)C2(CCCC=CCCCOC(=O)N3CC[C@@](C(=O)N[C@@H](Cc4ccccc4Cl)C(=O)N[C@@H](Cc4csc5ccccc45)C(=O)N[C@@H](CCC(N)=O)C(N)=O)(C3)NC1=O)CCCC=CCCC(=O)N1CCCC1C(=O)N[C@@H](CC(=O)O)C(=O)N[C@@H](CC(C)(C)C)C(=O)N2 (stereo partly drawn) [I-1984, ProAm5-Asp-Npg-B5-Asp-3COOHF-Ala-Ala-Phe-Leu-PyrS2-2C1F-BztA-Gln-NH2] | 320
CC(=O)N1CCC[C@]12CCCCCCC1(CCCCCCCCOC(=O)N3CC[C@@](C(=O)N[C@@H](Cc4ccsc4)C(=O)N[C@@H](Cc4csc5ccccc45)C(=O)N[C@@H](Cc4ccccc4)C(N)=O)(C3)NC(=O)[C@H]([C@@H](C)O)NC(=O)[C@H](Cc3ccccc3)NC(=O)[C@H](C)NC(=O)[C@H](C)NC(=O)[C@H](CN(CC(=O)O)CC(F)(F)F)NC(=O)[C@H](CC(=O)O)NC1=O)NC(=O)[C@H](CC(C)(C)C)NC(=O)[C@H](CC(=O)O)NC2=O (stereo partly drawn) [I-1756, Ac-PL3-Asp-Npg-B5-Asp-TfeGA-Ala-Ala-Phe-Thr-PyrS2-3Thi-BztA-Phe-NH2] | 329
CC(=O)N1CCC[C@]12CC=CCCCC1(CCCC=CCCCOC(=O)N3CC[C@@](C(=O)N[C@@H](Cc4ccccc4)C(=O)N[C@@H](Cc4csc5ccccc45)C(=O)N[C@@H](CC(=O)N4CCOCC4)C(N)=O)(C3)NC(=O)[C@H](CC(C)C)NC(=O)[C@H](Cc3ccccc3)NC(=O)[C@H](C)NC(=O)[C@H](CCCCNC(=O)CCN(C)C)NC(=O)[C@H](CCC(N)=O)NC(=O)[C@H](CC(=O)O)NC1=O)NC(=O)[C@H](CC1CCCCC1)NC(=O)[C@H](CC(N)=O)NC2=O (stereo partly drawn) [I-2528, Ac-PL3-Asn-Cha-B5-Asp-Gln-[Me2Npr]Lys-Ala-Phe-Leu-PyrS2-Phe-BztA-MorphAsn-NH2] | 610
CC(=O)N1CCC[C@]12CC=CCCCC1(CCCC=CCCCOC(=O)N3CC[C@@](C(=O)N[C@@H](Cc4ccsc4)C(=O)N[C@@H](Cc4csc5ccccc45)C(=O)N[C@@H](CCC(N)=O)C(N)=O)(C3)NC(=O)[C@H](CCCNC(=N)N)NC(=O)[C@H](Cc3ccccc3)NC(=O)[C@H](C)NC(=O)[C@H](C)NC(=O)[C@H]([C@@H](C)O)NC(=O)[C@H](CC(N)=O)NC1=O)NC(=O)[C@H](CC(C)(C)C)NC(=O)[C@H](CC(=O)O)NC2=O (stereo partly drawn) [I-1883, Ac-PL3-Asp-Npg-B5-Asn-Thr-Ala-Ala-Phe-Arg-PyrS2-3Thi-BztA-Gln-NH2] | 884
CC(=O)N1CCC[C@]12CC=CCCCC1(CCCC=CCCCOC(=O)N3CC[C@@](C(=O)N[C@@H](Cc4ccccc4)C(=O)N[C@@H](Cc4csc5ccccc45)C(=O)N[C@@H](CCO)C(N)=O)(C3)NC(=O)[C@H](CC(N)=O)NC(=O)[C@H](Cc3ccccc3)NC(=O)[C@H](C)NC(=O)[C@H](CCCCNC(C)C)NC(=O)[C@H](CCO)NC(=O)[C@H](CC(=O)O)NC1=O)NC(=O)[C@H](CC1CCCCC1)NC(=O)[C@H](CC(N)=O)NC2=O (stereo partly drawn) [I-1933, Ac-PL3-Asn-Cha-B5-Asp-Hse-iPrLys-Ala-Phe-Asn-PyrS2-Phe-BztA-Hse-NH2] | 154
CC(=O)N1CCC[C@]12CC=CCCCC1(CCCC=CCCCOC(=O)N3CC[C@@](C(=O)N[C@@H](Cc4ccsc4)C(=O)N[C@@H](Cc4csc5ccccc45)C(=O)N[C@@H](CCC(N)=O)C(N)=O)(C3)NC(=O)[C@H](CC(N)=O)NC(=O)[C@H](Cc3ccc(O)cc3)NC(=O)[C@H](C)NC(=O)[C@H](C)NC(=O)[C@H]([C@@H](C)O)NC(=O)[C@H](CC(N)=O)NC1=O)NC(=O)[C@H](CC(C)(C)C)NC(=O)[C@H](CC(=O)O)NC2=O (stereo partly drawn) [I-2015, Ac-PL3-Asp-Npg-B5-Asn-Thr-Ala-Ala-Tyr-Asn-PyrS2-3Thi-BztA-Gln-NH2] | 522
